# In US8158621B2, “Methods of treating or preventing autoimmune diseases with 2,4-pyrimidinediamine compounds” (Rigel Pharmaceuticals, Inc., priority 2002, dated 2012):
# Read-outs that look alike come from different tables or passages of the source.
# Columns and labels:
# Syk kinase = target: T1, Syk kinase (Homo sapiens, UniProt P43405); experiment: Syk kinase biochemical fluorescence polarization assay; conditions: isolated Syk kinase; for IC50: fluorescence polarization, 4 uM ATP
# T1 construct: purchased Upstate, Lake Placid NY
# [1] = tested on: cultured human mast cells (CHMC); experiment: CHMC low cell density IgE activation: tryptase assay; type: cell-based; conditions: low cell density; read-out: CHMC anti-IgE Tryptase
# Method in brief: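 Cultured human mast cells (1000-1500 cells/well, donor-dependent) equilibrated 1 hr at 37° C, then stimulated with anti-IgE for 30 min at 37° C. Tryptase released into the supernatant is measured with a fluorogenic tryptase substrate after 30 min at room temperature.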
# [2] = tested on: cultured human mast cells (CHMC); experiment: CHMC low cell density ionomycin activation: tryptase assay; type: cell-based; conditions: low cell density; read-out: CHMC Ionomycin Tryptase
# [3] = tested on: Human Jurkat T-cells (clone N); experiment: Jurkat T-cell activation (anti-TCR, CD69 upregulation); type: cell-based
# Method in brief: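 Jurkat cells in RPMI + 5% FBS preincubated with compound 1 h at 37 °C, then stimulated with anti-TCR C305 at 500 ng/ml for 20 h. CD69 surface expression stained with anti-CD69-APC and read by flow cytometry; IC50 versus solvent-only control.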
Compound,IC50 (Syk kinase) [µM],IC50 [1] [µM],further results
NC1CCOc2ccc(Nc3nc(Nc4ccc(Cl)c(Cl)c4)ncc3F)cc21 (racemic) [Compound R950430],0.15,0.239,–
O=C(c1cc2cc(Nc3ncc(F)c(Nc4cccc(O)c4)n3)ccc2o1)N1CCNCC1 [Compound R926500],0.929,–,IC50 [3]: 2.37 µM
CN1CCN(c2ccc(Nc3ncc(F)c(Nc4ccc5c(n4)NC(=O)CO5)n3)cc2)CC1 [Compound R945426],0.301,0.256,–
CC1(C)Oc2ccc(Nc3nc(Nc4cccc(Cl)c4)ncc3F)nc2NC1=O [Compound R940386],19.5,3.42,–
COc1ccc(Nc2nc(Nc3cc(C)c(O)c(Cl)c3)ncc2F)cc1Cl [Compound R926968],0.235,0.249,IC50 [3]: 2.02 µM
CCOC(=O)c1cnc(Nc2ccc(OCC(=O)N3CCCC3)cc2)nc1Nc1ccc(OCC(=O)N2CCCC2)cc1 [Compound R926562],> 10,–,IC50 [3]: 1.25 µM
COc1cc(Nc2nc(Nc3ccc4cn[nH]c4c3)ncc2F)ccc1F [Compound R935416],0.196,0.166,–
CC(=O)N1CCN(c2ccc(Nc3ncc(F)c(Nc4ccc5c(n4)NC(=O)C(C)(C)O5)n3)cc2)CC1 [Compound R945419],0.127,0.125,–
Cc1cc(C)cc(Nc2ncc(F)c(Nc3ccc4c(n3)NC(=O)C(C)(C)O4)n2)c1 [Compound R945433],0.431,0.276,–
CNC(=O)COc1cccc(Nc2ncc(F)c(Nc3ccc4c(c3)NC(=O)CO4)n2)c1 [Compound R908701],0.022,–,IC50 [3]: 0.302 µM
COc1ccc(Nc2ncc(F)c(Nc3ccc4c(n3)NC(=O)C(C)(C)O4)n2)cc1F [Compound R940384],> 10,1.32,–
CCOC(=O)COc1cccc(Nc2ncc(C(=O)OCC)c(Nc3ccc4c(c3)OCCO4)n2)c1 [Compound R926797],> 10,–,IC50 [3]: > 10 µM
COc1ccc(Nc2ncc(F)c(Nc3ccc4c(n3)NC(=O)C(C)(C)O4)n2)cc1Cl [Compound R940371],3.64,0.316,–
CC(=O)N1CCN(c2ccc(Nc3ncc(F)c(NC4CCC4)n3)cc2)CC1 [Compound R945385],2.12,1.1,–
CNC(=O)COc1cccc(Nc2ncc(F)c(Nc3cc(C)ccn3)n2)c1 [Compound R927016],0.954,–,IC50 [3]: 7.16 µM
COc1ccc(Nc2ncc(F)c(Nc3ccc4c(n3)NC(=O)CO4)n2)cc1 [Compound R945404],> 10,0.103,–

Compound,IC50 (Syk kinase) [µM],IC50 [1] [µM],further results
O=C1COc2ccc(Nc3nc(Nc4ccc5c(c4)OCCO5)ncc3F)nc2N1 [Compound R945405],0.168,0.131,–
CC1(C)C(=O)NC(=O)c2cc(Nc3nc(Nc4ccc5cn[nH]c5c4)ncc3F)ccc21 [Compound R908956],1.18,0.34,–
COc1c(Cl)cc(Nc2ncc(F)c(Nc3ccc4c(n3)NC(=O)CO4)n2)cc1Cl [Compound R945400],17.9,> 10,–
Fc1cc(Nc2nc(Nc3ccc4cn[nH]c4c3)ncc2F)ccc1Cl [Compound R935414],0.152,0.204,–
CNC(=O)COc1cccc(Nc2ncc(F)c(Nc3ccc4c(c3)C(O)CCO4)n2)c1 (stereo not drawn) [Compound R950349],0.033,–,IC50 [3]: 0.363 µM
CC(C)Oc1ccc(Nc2ncc(F)c(Nc3ccc4c(n3)NC(=O)CO4)n2)cc1 [Compound R945413],> 10,1.7,–
CCOC(=O)c1cnc(Nc2ccc3c(c2)OCCO3)nc1Nc1ccc2c(c1)OCCO2 [Compound R926252],> 10,–,"IC50 ([3]; Homo sapiens, Jurkat): > 10 µM"
Cc1cc(C)cc(Nc2ncc(F)c(Nc3ccc4c(n3)NC(=O)CO4)n2)c1 [Compound R945432],4440,0.049,–
Cc1ccc(Nc2nc(Nc3cccc(O)c3)ncc2F)nc1 [Compound R927017],2.35,–,"IC50 ([3]; Homo sapiens, Jurkat): 8.16 µM"
CNC(=O)COc1cccc(Nc2ncc(F)c(Nc3ccc4c(n3)NCCO4)n2)c1 [Compound R945299],0.022,–,IC50 [3]: 1.06 µM
CCOC(=O)COc1cccc(Nc2ncc(C(=O)OCC)c(Nc3cccc(O)c3)n2)c1 [Compound R926798],> 10,–,IC50 [3]: > 10 µM
CC1(C)Oc2ccc(Nc3nc(Nc4cccc(C(C)(C)C)c4)ncc3F)nc2NC1=O [Compound R940381],5000,–,–
Fc1cnc(Nc2ccc3[nH]ncc3c2)nc1Nc1ccc(OC(F)(F)F)c(Cl)c1 [Compound R935366],0.38,–,IC50 [3]: 4.18 µM
COc1c(C)cc(Nc2nc(Nc3cccc(OCCN4CCNCC4)c3)ncc2F)cc1C [Compound R945157],1.76,–,–
Oc1c(Cl)cc(Nc2ncc(F)c(Nc3ccc4c(c3)OCCO4)n2)cc1Cl [Compound R926763],0.024,–,"IC50 ([3]; Homo sapiens, Jurkat): 3.72 µM"

# The next lines start with results.
IC50 (Syk kinase) [µM],IC50 [1] [µM],Compound,further results
0.312,0.256,COc1ccc(Nc2ncc(F)c(Nc3cccc(N)n3)n2)cc1Cl [Compound R927082],IC50 [2]: > 10 µM
0.127,0.082,CNC(=O)Cn1ncc2cc(Nc3ncc(F)c(Nc4ccc5c(c4)NC(=O)C(C)(C)O5)n3)ccc21 [Compound R935437],–
0.182,7,O=C1COc2ccc(Nc3nc(Nc4ccc(Cl)c(Cl)c4)ncc3F)nc2N1 [Compound R945398],–
0.144,0.104,CC1(C)Oc2ccc(Nc3nc(Nc4cccc(O)c4)ncc3F)nc2NC1=O [Compound R940382],–
0.273,0.145,CC1(C)Oc2ccc(Nc3nc(Nc4ccc(N5CCOCC5)cc4)ncc3F)nc2NC1=O [Compound R945423],–
0.254,0.204,CNC(=O)COc1cccc(Nc2ncc(F)c(Nc3cccc(N)n3)n2)c1 [Compound R927080],–
0.253,0.094,COc1cc(Nc2ncc(F)c(Nc3ccc4c(n3)NC(=O)C(C)(C)O4)n2)cc(OC)c1 [Compound R940372],–
0.515,0.053,COC(=O)N1CCN(c2ccc(Nc3ncc(F)c(Nc4ccc5c(n4)NC(=O)C(C)(C)O5)n3)cc2)CC1 [Compound R945416],–
0.035,–,CNC(=O)COc1cccc(Nc2ncc(F)c(Nc3ccc4c(c3)OCCCO4)n2)c1 [Compound R935202],IC50 [3]: 1.94 µM
0.418,0.112,COc1ccc(Nc2ncc(F)c(Nc3ccc4c(n3)NC(=O)CO4)n2)cc1F [Compound R945402],–
0.064,0.058,COC(=O)Cn1ncc2cc(Nc3ncc(F)c(Nc4ccc5c(c4)NC(=O)C(C)(C)O5)n3)ccc21 [Compound R935436],–
0.308,0.095,O=C1COc2ccc(Nc3nc(Nc4ccc(N5CCOCC5)cc4)ncc3F)nc2N1 [Compound R945412],–
1.81,–,Cc1cnc(Nc2ccc3c(c2)OCCO3)nc1Nc1ccc2c(c1)OCCO2 [Compound R926242],"IC50 ([3]; Homo sapiens, Jurkat): 3.82 µM"
> 10,1.19,CC1(C)Oc2ccc(Nc3nc(Nc4cc(Cl)cc(Cl)c4)ncc3F)nc2NC1=O [Compound R940387],–
0.479,0.279,CN1CCN(c2ccc(Nc3ncc(F)c(Nc4ccc5c(n4)NC(=O)C(C)(C)O5)n3)cc2)CC1 [Compound R945427],–
> 10,–,CCN(C(C)=O)c1ccc(Nc2ncc(F)c(Nc3ccc4c(n3)NC(=O)C(C)(C)O4)n2)cc1 [Compound R945418],IC50 [2]: > 10 µM
0.11,–,Cn1ncc2cc(Nc3ncc(F)c(Nc4ccc5c(c4)OCCO5)n3)ccc21 [Compound R935193],IC50 [3]: 1.6 µM
0.222,0.245,Cc1cccc(C)c1Nc1ncc(F)c(Nc2cccc(N)n2)n1 [Compound R927078],–
0.354,–,Fc1cnc(Nc2ccc3[nH]ncc3c2)nc1Nc1ccc2[nH]ncc2c1 [Compound R935189],IC50 [3]: 0.736 µM
0.007,–,COc1cc(Nc2ncc(F)c(Nc3ccc4c(n3)NC(=O)CO4)n2)cc(OC)c1 [Compound R945401],IC50 [2]: > 10 µM
0.325,–,COC(=O)c1cc2cc(Nc3ncc(F)c(Nc4ccc5c(c4)NC(=O)C(F)(F)O5)n3)ccc2o1 [Compound R940353],IC50 [3]: 20.7 µM
0.01,–,CC1(C)Oc2ccc(Nc3nc(Nc4cc(Cl)c(O)c(Cl)c4)ncc3F)cc2NC1=O [Compound R927051],IC50 [2]: 12.6 µM
2.07,–,CN(C)CCOc1ccc(Nc2ncc(F)c(Nc3cccc(O)c3)n2)cc1 [Compound R909236],"IC50 [3]: > 10 µM; Syk kinase catalyzed phosphorylation of a peptide substrate, IC50s (Syk kinase): micromolar range"
0.053,0.06,Cn1ncc2ccc(Nc3ncc(F)c(Nc4ccc5c(n4)NC(=O)C(C)(C)O5)n3)cc21 [Compound R940389],–
0.132,0.124,CCOC(=O)CCn1ncc2cc(Nc3ncc(F)c(Nc4ccc5c(c4)NC(=O)C(C)(C)O5)n3)ccc21 [Compound R935431],–
> 10,10.5,N[C@@H]1CCCC[C@H]1Nc1ncc(F)c(Nc2cc(Cl)cc(Cl)c2)n1 [Compound R950440],–
0.665,0.188,CC1(C)Oc2ccc(Nc3nc(Nc4cccc(OCC(=O)NC5CCC5)c4)ncc3F)nc2NC1=O [Compound R945424],–
5050,–,CCOC(=O)c1cnc(Nc2cccc3cn[nH]c23)nc1Nc1cccc2cn[nH]c12 [Compound R926321],IC50 [3]: 1.29 µM
0.107,–,COc1cc(Nc2ncc(F)c(Nc3cccc(O)c3)n2)cc(OC)c1 [Compound R926780],IC50 [3]: 2.16 µM
10.2,–,COc1ccc(Nc2ncc(F)c(Nc3ccc(OC)c(Cl)c3)n2)cc1Cl [Compound R926946],"IC50 ([3]; Homo sapiens, Jurkat): 9.4 µM"
